Measurements from publication PMC8391421, “Identification of Novel Positive Allosteric Modulators of Neurotrophin Receptors for the Treatment of Cognitive Dysfunction” (Cells, 2021).

Molecular target: T1, full-length TrkA-HA (Homo sapiens, UniProt P04629)
T1 construct: Full-length TrkA with a HA-tag (TrkA-HA) fused to the C-terminus; A6 used the anti-HA immunoprecipitate and A14 the 12,000 x g lysate supernatant
Test: Kinase activity assay of immunoprecipitated HA-tagged full length TrkA (LANCE TR-FRET)
Assay type: biochemical
Settings: 5 µM compound, increasing ATP, vs DMSO
Procedure: A cDNA expression plasmid (pCMV3) with C-terminal-HA tagged human NTRK1 cDNA subcloned between the HindIII and XbaI sites was obtained from SinoBiological (NordicBiosite, Sweden). The human neuroblastoma cell line SH-SY5Y (ATCC, LGC Standards GmbH, Wesel, Germany) was transfected with lipofectamine 3000 and 2 µg of the plasmid. Hygromycin was used for the selection, and expansion of the TrkA-positive clones were performed using 200 µg/mL of Hygromycin. A clone with stable TrkA–HA expression was used for protein expression. Briefly, SH-SY5Y-TrkA-HA cells were seeded in T175cm2 flasks and grown until confluency. A total of 10 flasks were used for each experiment. Cells were detached using Accutase and washed twice with Dulbecco’s PBS through centrifugation. The final cell pellet was resuspended in 2 mL lysis buffer (FNN0011, Thermo Fisher Scientific, Gothenburg, Sweden) supplemented with protease and phosphatase inhibitors and 1 mM DTT. The cell suspension was sonicated with a probe sonicator at 40% amplitude for 2 × 5 s. The resulting homogenate was centrifuged for 10 min at 12,000× g. […] TR-FRET was measured using an excitation wavelength of 340 nm and an emission wavelength of 665 nm with an iD5 plate reader (Molecular Devices, Berkshire, RG41 5TS UK). […]

T1 sequence (P04629 33-796): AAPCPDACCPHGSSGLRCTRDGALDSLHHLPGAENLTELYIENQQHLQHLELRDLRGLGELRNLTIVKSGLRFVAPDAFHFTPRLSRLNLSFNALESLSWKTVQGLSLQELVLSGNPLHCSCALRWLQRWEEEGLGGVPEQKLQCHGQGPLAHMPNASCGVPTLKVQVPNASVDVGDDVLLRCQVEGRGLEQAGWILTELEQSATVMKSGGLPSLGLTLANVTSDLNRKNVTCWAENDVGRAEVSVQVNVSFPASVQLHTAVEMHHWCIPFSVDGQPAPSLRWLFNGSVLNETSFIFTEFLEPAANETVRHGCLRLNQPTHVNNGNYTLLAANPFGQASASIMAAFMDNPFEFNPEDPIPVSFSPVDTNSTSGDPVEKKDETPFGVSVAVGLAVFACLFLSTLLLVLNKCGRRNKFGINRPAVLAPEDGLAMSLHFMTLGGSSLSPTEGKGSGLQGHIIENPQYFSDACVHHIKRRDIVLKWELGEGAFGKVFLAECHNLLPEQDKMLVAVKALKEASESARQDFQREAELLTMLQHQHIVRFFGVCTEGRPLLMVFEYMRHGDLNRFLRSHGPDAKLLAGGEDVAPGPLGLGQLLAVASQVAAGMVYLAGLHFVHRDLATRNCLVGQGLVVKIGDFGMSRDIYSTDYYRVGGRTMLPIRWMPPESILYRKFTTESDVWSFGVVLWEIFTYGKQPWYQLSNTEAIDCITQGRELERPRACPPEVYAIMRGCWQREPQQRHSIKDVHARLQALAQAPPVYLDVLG

**Q.** `Cc1cc(-n2c(=O)[nH]c(=O)n(C)c2=O)ccc1Oc1ccc(S(=O)(=O)C(F)(F)F)cc1` [ACD855, Toltrazuril-sulfone] was tested. Which “effect on Vmax(app) of TrkA” value did it give?
**A.** The value was “significantly increase”.
